Reference: article PMC4338040, “Design of a Multicomponent Peptide-Woven Nanocomplex for Delivery of siRNA” (PLoS ONE, 2015)

System: siRNA
Test: SPR analysis of peptide binding to immobilized siRNA
Conditions: peptide with sHGP-9r (19:1 molar ratios), 10, 5, 2.5 and 1.25 μM, biotinylated siRNA on streptavidin chip, 25°C
Description: The dynamics of PwSN formation were studied by SPR analysis (SR7500 DC, Reichert Inc, Depew, NY). 5′-Biotinylated siRNAs were diluted to 1 μM in HBS buffer (10 mM HEPES, pH 7.4, 150 mM NaCl, 3.4 mM EDTA, 0.005% Tween20), heated at 85°C for 10 min, cooled to room temperature, diluted to 20 fmol/μl in running buffer (10 mM HEPES, pH 7.4, 150 mM NaCl, 62.5 μg/ml bovine serum albumin, 125 μg/ml tRNA, 1 mM dithiothreitol, 0.05% Tween20), and injected at 10 μl/min. 50–100 response units of siRNA were coated per flow channel on streptavidin-coated sensor chip (NeutrAvidin Surface chip; Reichert Analytical Instrument, Depew, NY). 2-min injections of four different peptide concentrations (10, 5, 2.5, and 1.25 μ M) were injected over the sensor chip surface at 25°C with a flow rate of 25 μl/min. The surface was regenerated by removing bound peptides with a 180-s 2 M NaCl injection and 20-s 0.1% SDS followed by a binding buffer injection to rinse the needle. Sensorgrams were fit to kinetic titration model using Clamp program. To monitor dissociation between peptide and siRNA upon heparan sulfate competition, The 2.5 μM of peptides were injected to reach saturated binding and different concentrations of heparan sulfate were injected.

binding affinity for siRNA (in words) | Substance
strongest binding affinity | CRKRLDRNC-GG-RRRRRRRRR [I4R-9r, interleukin-4 receptor-targeting peptide (I4R) connected by GG to nine D-arginine peptide]
moderate affinity | CRKRLDRNCggRRRRARRRR [I4R-9r(A1), I4R-9r variant with one arginine of 9r replaced by alanine]

Further lines, the substance ahead of its results:

Substance | binding affinity for siRNA (in words)
CRKRLDRNCggRARRARRAR [I4R-9r(A3), I4R-9r variant with three alanine substitutions] | lowest affinity
CRKRLDRNCggRRARRRARR [I4R-9r(A2), I4R-9r variant with two alanine substitutions] | lowest affinity
CRKRLDRNCggRRARRRRRR [I4R-9r(A1*), I4R-9r variant with one arginine of 9r replaced by alanine, other position] | moderate affinity

System: siRNA
Test: Gel retardation assay of siRNA encapsulation
Assay type: physicochemical
Conditions: 2% agarose, 100 pmol siRNA mixed with peptide 30 min at room temperature, ratios 1:5 to 1:50
Description: Peptide-woven siRNA nanocomplexes (PwSN) were prepared by mixing siRNA in diethylpyrocarbonate (DEPC)-treated water (100 pmoles) with peptide carrier with a molar ratio of 1:5 to 1:50 (siRNA: peptide) for 30 min at room temperature. The samples were subjected on 2% agarose gels electrophoresis to examine siRNA encapsulation. To test the stability of the siRNA nanocomplex against RNase A, the nanocomplex containing 100 pmol of siRNA mixed with 20-fold molar excess of peptides, then was incubated in the presence or absence of RNase A (0.2 μg) for up to 6 h at 37°C. After incubation, the RNase A activity was inhibited by addition of 2% sodium dodecyl sulfate (SDS) and subjected to agarose gel electrophoresis.

siRNA:peptide molar ratios at which siRNA is encapsulated | Substance
between 1:20 and 1:50 | CRKRLDRNC-GG-RRRRRRRRR [I4R-9r, interleukin-4 receptor-targeting peptide (I4R) connected by GG to nine D-arginine peptide]
